From patent US12331026B2 (NiKang Therapeutics, Inc., priority 2022, dated 2025)

Target: T1, CDK2 (Homo sapiens, UniProt P24941)
T1 construct: endogenous in cells; host or cells: OVCAR3 cells
Test: Phospho-RB measurement in OVCAR3 cells (HTRF phospho-RB S807/811)
Type: cell-based
Conditions: phosphorylation of RB protein at S807/811, HTRF, 24 h compound treatment, 0.3 to 10,000 nM, read-out: pRb (uM)
Experimental: The ability of compounds of Formula (I) to inhibit CDK2 was determined in OVCAR3 cells. Phosphorylation of RB protein at S807/811 were measured using HTRF phospho-RB cellular kits (Cat #64RBS807PEG) from Cisbio.
On Day 1, OVCAR3 cells were seeded into 96-well tissue-culture treated plates at 20,000 cells/well in 200 μL and incubated overnight at 37° C. in CO2 atmosphere. On Day 2, the cells were treated with test compounds at concentrations from 0.3 to 10,000 nM using HP D300 digital dispenser. Twenty-four hours after compound treatment, cell culture media was removed by flicking the plate and tapping the plate against clean paper towel. Immediately 30 μL 1× lysis buffer was supplemented from the kit and the plate was incubated at room temperature on shaker for 30 min. After homogenization by pipetting up and down, 8 μL cell lysate from 96-well cell culture plate was transferred to 384-well small volume white detection plate. 2 μL premixed detection solution was added and the plate was covered with sealer. To prepare the detection solution, d2 conjugated-phospho-RB antibody and Eu-cryptate conjugated phosphor-RB antibody were diluted into detection buffer following manufacturer's instruction.
Detection plates were incubated for 4 h at room temperature and read on ClarioStar (BMG Labtech) in TR-FRET mode ([…]). The TR-FRET ratio (665 nM1/620 nM) was plotted against the compound concentration and normalized to DMSO controls. Half maximal inhibition concentration (IC50) values are calculated with a four-parameter logistic fit using GraphPad Prism (version 8; La Jolla, CA).

| Compound | IC50 |
| --- | --- |
| O=S1(=O)CCC(N2CC3CCC(C2)N3c2nc(-c3cccc(NS(=O)(=O)c4c(F)cccc4F)c3F)c(-c3ccnc(NC4CC5(C4)CS(=O)(=O)C5)n3)s2)CC1 [Example 38, N-(3-(5-(2-((2,2-dioxido-2-thiaspiro[3.3]heptan-6-yl)amino)-pyrimidin-4-yl)-2-(3-(1,1-dioxidotetrahydro-2H-thiopyran-4-yl)-3,8-diazabicyclo[3.2.1]octan-8-yl)thiazol-4-yl)-2-fluorophenyl)-2,6-difluorobenzenesulfonamide] | 8.12 µM |
| O=S1(=O)CC2(CC(Nc3nccc(-c4sc(C56CCC(CC5)C6)nc4-c4cccc(NS(=O)(=O)c5c(F)cccc5F)c4F)n3)C2)C1 [Example 32, N-(3-(2-(bicyclo[2.2.1]heptan-1-yl)-5-(2-((2,2-dioxido-2-thiaspiro[3.3]heptan-6-yl)amino)pyrimidin-4-yl)thiazol-4-yl)-2-fluorophenyl)-2,6-difluorobenzenesulfonamide] | 0.08 µM |
| O=S1(=O)CC2(CC(Nc3nccc(-c4sc(C56CC(C5)C6)nc4-c4cccc(NS(=O)(=O)c5c(F)cccc5C5CC5)c4F)n3)C2)C1 [Example 41, N-(3-(2-(bicyclo[1.1.1]pentan-1-yl)-5-(2-((2,2-dioxido-2-thiaspiro[3.3]heptan-6-yl)amino)pyrimidin-4-yl)thiazol-4-yl)-2-fluorophenyl)-2-cyclopropyl-6-fluorobenzenesulfonamide] | 0.36 µM |
| O=S1(=O)CC2(CC(Nc3nccc(-c4sc(C56CC7CC(CC(C7)C5)C6)nc4-c4cccc(NS(=O)(=O)c5c(F)cccc5F)c4F)n3)C2)C1 [Example 6, N-(3-(2-((3r,5r,7r)-adamantan-1-yl)-5-(2-((2,2-dioxido-2-thiaspiro[3.3]heptan-6-yl)amino)pyrimidin-4-yl)thiazol-4-yl)-2-fluorophenyl)-2,6-difluorobenzenesulfonamide] | 0.08 µM |
| O=S1(=O)CC2(CC(Nc3nccc(-c4sc(C56CCC(C5)C6)nc4-c4cccc(NS(=O)(=O)c5c(F)cccc5F)c4F)n3)C2)C1 [Example 20] | 0.24 µM |
| CN(C)C1CC2CCC(C1)N2c1nc(-c2cccc(NS(=O)(=O)c3c(F)cccc3F)c2F)c(-c2ccnc(NC3CC4(C3)CS(=O)(=O)C4)n2)s1 (centres unmarked) [Example 25, N-(3-(2-(3-(dimethylamino)-8-azabicyclo[3.2.1]octan-8-yl)-5-(2-((2,2-dioxido-2-thiaspiro[3.3]heptan-6-yl)amino)pyrimidin-4-yl)thiazol-4-yl)-2-fluorophenyl)-2,6-difluorobenzenesulfonamide] | 1.55 µM |
| O=S1(=O)CC2(CC(Nc3nccc(-c4sc(C56CC(CO)(C5)C6)nc4-c4cccc(NS(=O)(=O)c5c(F)cccc5F)c4F)n3)C2)C1 [Example 34, N-(3-(5-(2-((2,2-dioxido-2-thiaspiro[3.3]heptan-6-yl)amino)pyrimidin-4-yl)-2-(3-(hydroxymethyl)bicyclo[1.1.1]pentan-1-yl)thiazol-4-yl)-2-fluorophenyl)-2,6-difluorobenzenesulfonamide] | 2.01 µM |
| CN1CC2CC(C1)N2c1nc(-c2cccc(NS(=O)(=O)c3c(F)cccc3F)c2F)c(-c2ccnc(NC3CC4(C3)CS(=O)(=O)C4)n2)s1 [Example 22, N-(3-(5-(2-((2,2-dioxido-2-thiaspiro[3.3]heptan-6-yl)amino)pyrimidin-4-yl)-2-(3-methyl-3,6-diazabicyclo[3.1.1]heptan-6-yl)thiazol-4-yl)-2-fluorophenyl)-2,6-difluorobenzenesulfonamide] | 0.44 µM |
| CC(C)(C)OC(=O)N1CCC(C)(c2nc(-c3cccc(NS(=O)(=O)c4c(F)cccc4F)c3F)c(-c3ccnc(NC4CC5(C4)CS(=O)(=O)C5)n3)s2)CC1 [Example 13, tert-butyl 4-(4-(3-((2,6-difluorophenyl)sulfonamido)-2-fluorophenyl)-5-(2-((2,2-dioxido-2-thiaspiro[3.3]heptan-6-yl)amino)pyrimidin-4-yl)thiazol-2-yl)-4-methylpiperidine-1-carboxylate] | 0.73 µM |
| O=S1(=O)CC2(CC(Nc3nccc(-c4sc(C56CCC(CC5)C6)nc4-c4cccc(NS(=O)(=O)c5c(F)cccc5F)c4F)n3)C2)C1 [Example 9, N-(3-(2-(bicyclo[2.2.1]heptan-1-yl)-5-(2-((2,2-dioxido-2-thiaspiro[3.3]heptan-6-yl)amino)pyrimidin-4-yl)thiazol-4-yl)-2-fluorophenyl)-2,6-difluorobenzenesulfonamide] | 0.1 µM |

More lines, now with the values ahead:

| IC50 | Compound |
| --- | --- |
| 0.32 µM | O=S1(=O)CC2(CC(Nc3nccc(-c4sc(N5C6CCC5CN(CCC(F)(F)F)C6)nc4-c4cccc(NS(=O)(=O)c5c(F)cccc5F)c4F)n3)C2)C1 [Example 142, N-(3-(5-(2-((2,2-dioxido-2-thiaspiro[3.3]heptan-6-yl)amino)-pyrimidin-4-yl)-2-(3-(3,3,3-trifluoropropyl)-3,8-diazabicyclo-[3.2.1]octan-8-yl)thiazol-4-yl)-2-fluorophenyl)-2,6-difluorobenzenesulfonamide] |
| 0.095 µM | CC1C2(CC(Nc3nccc(-c4sc(C56CC(C5)C6)nc4-c4cccc(NS(=O)(=O)c5c(F)cccc5F)c4F)n3)C2)C(C)S1(=O)=O (centres unmarked) [Example 154, N-(3-(2-(bicyclo[1.1.1]pentan-1-yl)-5-(2-((1,3-dimethyl-2,2-dioxido-2-thiaspiro[3.3]heptan-6-yl)amino)pyrimidin-4-yl)thiazol-4-yl)-2-fluorophenyl)-2,6-difluorobenzenesulfonamide] |
| 0.2 µM | CS(=O)(=O)[C@H]1CC[C@@H](Nc2nccc(-c3sc(C45CC(Cl)(C4)C5)nc3-c3cccc(NS(=O)(=O)c4c(F)cccc4C(F)(F)F)c3F)n2)CC1 [Example 146, N-(3-(2-(3-chlorobicyclo[1.1.1]pentan-1-yl)-5-(2-(((1s,4s)-4-(methylsulfonyl)cyclohexyl)amino)pyrimidin-4-yl)thiazol-4-yl)-2-fluorophenyl)-2-fluoro-6-(trifluoromethyl)benzenesulfonamide] |
| 0.07 µM | CN1CC2CCC(C1)N2c1nc(-c2cccc(NS(=O)(=O)c3c(F)cccc3F)c2F)c(-c2ccnc(NC3CC4(C3)CS(=O)(=O)C4)n2)s1 [Example 135, N-(3-(5-(2-((2,2-dioxido-2-thiaspiro[3.3]heptan-6-yl)amino)-pyrimidin-4-yl)-2-(3-methyl-3,8-diazabicyclo[3.2.1]octan-8-yl)thiazol-4-yl)-2-fluorophenyl)-2,6-difluorobenzenesulfonamide] |
| 6.7 µM | O=S1(=O)CC2(CC(Nc3nccc(-c4sc(N5C6CCC5CNC6)nc4-c4cccc(NS(=O)(=O)c5c(F)cccc5F)c4F)n3)C2)C1 [Example 141, N-(3-(2-(3,8-diazabicyclo[3.2.1]octan-8-yl)-5-(2-((2,2-dioxido-2-thiaspiro[3.3]heptan-6-yl)amino)pyrimidin-4-yl)thiazol-4-yl)-2-fluorophenyl)-2,6-difluorobenzenesulfonamide] |
| 0.077 µM | CS(=O)(=O)[C@H]1CC[C@@H](Nc2nccc(-c3sc(C45CC(F)(C4)C5)nc3-c3cccc(NS(=O)(=O)c4c(F)cccc4C(F)(F)F)c3F)n2)CC1 [Example 87, 2-fluoro-N-(2-fluoro-3-(2-(3-fluorobicyclo[1.1.1]pentan-1-yl)-5-(2-(((1s,4s)-4-(methylsulfonyl)cyclohexyl)-amino)pyrimidin-4-yl)thiazol-4-yl)phenyl)-6-(trifluoromethyl)benzenesulfonamide] |
| 0.04 µM | O=S1(=O)CC2(CC(Nc3nccc(-c4sc(C56CC(C(F)F)(C5)C6)nc4-c4cccc(NS(=O)(=O)c5c(F)cccc5C(F)(F)F)c4F)n3)C2)C1 [Example 92, N-(3-(2-(3-(difluoromethyl)bicyclo[1.1.1]pentan-1-yl)-5-(2-((2,2-dioxido-2-thiaspiro[3.3]heptan-6-yl)amino)pyrimidin-4-yl)thiazol-4-yl)-2-fluorophenyl)-2-fluoro-6-(trifluoromethyl)benzenesulfonamide] |
| 0.24 µM | O=S1(=O)CC2(CC(Nc3nccc(-c4sc(N5C6CCC5CN(C5COC5)C6)nc4-c4cccc(NS(=O)(=O)c5c(F)cccc5F)c4F)n3)C2)C1 [Example 144, N-(3-(5-(2-((2,2-dioxido-2-thiaspiro[3.3]heptan-6-yl)amino)-pyrimidin-4-yl)-2-(3-(oxetan-3-yl)-3,8-diazabicyclo[3.2.1]octan-8-yl)thiazol-4-yl)-2-fluorophenyl)-2,6-difluorobenzenesulfonamide] |
| 0.14 µM | O=S1(=O)CC2(CC(Nc3nccc(-c4sc(C5(C(F)F)CC5)nc4-c4cccc(NS(=O)(=O)c5c(F)cccc5OC(F)F)c4F)n3)C2)C1 [Example 81] |
| 0.09 µM | O=S1(=O)CC2(CC(Nc3nccc(-c4sc(C56CC(C5)C6)nc4-c4cccc(NS(=O)(=O)c5c(F)cccc5OC(F)F)c4F)n3)C2)C1 [Example 58, N-(3-(2-(bicyclo[1.1.1]pentan-1-yl)-5-(2-((2,2-dioxido-2-thiaspiro[3.3]heptan-6-yl)amino)pyrimidin-4-yl)thiazol-4-yl)-2-fluorophenyl)-2-(difluoromethoxy)-6-fluorobenzenesulfonamide] |
